Here are results for 4 compounds from US10358419B2, “1,3-dipolar [70]fulleropyrrolidinium iodide derivatives” (priority 2015, dated 2019).

Data set [1] deals with VSV-G pseudotyped HIV-1 luciferase reporter virus (HIVluc). The format is cell-based.
Another data set concerns HIV-1NL4-3. Description: HIV-1 NL4-3 replication assay in SupT1 cells (p24 ELISA). On the technique in general: ELISA stands for enzyme-linked immunosorbent assay.
The target of data set [2] is recombinant HIV-1 protease (Human immunodeficiency virus type 1 group M subtype B, UniProt P03366). Description: HIV-1 protease in vitro activity assay (FRET peptide).
Data set [3] can be described thus: Solubility (UV-vis spectroscopy, solvents). The conditions noted are these: saturated solutions.

Turning to `CC(C)(C)NC(=O)[C@@H]1CN(Cc2cccnc2)CCN1C[C@@H](O)C[C@@H](Cc1ccccc1)C(=O)N[C@H]1c2ccccc2C[C@H]1O` [Indinavir, reference compound], the “reduction of infectivity / inhibition” value in data set [1] was 96.6%.
In the case of “mixture of α, β and γ-N—N-dimethyl[70]fulleropyrrolidinium iodide [Compound 2a]”, in data set [1], the “Effect on HIV-1 infectivity (FIG. 1)” value was “potently blocked the infectivity of HIV-1”, the “infectivity as compared to control (100%) infectivity” value (“infectivity … (100%) infectivity” below) worked out at 0.026% and the “reduction of infectivity / inhibition” value stood at 72%. In the data set with HIV-1NL4-3 (3 μM at time of infection, washed after 24 h), the “Effect on HIV-1 replication (FIG. 9C)” value is “potent inhibitory effect”. Further, the “Effect on HIV-1NL4-3 replication (FIG. 3)” value in the data set on HIV-1NL4-3 (6 μM for 24 hrs, given 24 hours after infection, p24 followed seven additional days) was “able to impair viral replication”.
For “α-N,N-dimethyl[70]fulleropyrrolidinium iodide [Compound 2b]”, in data set [1], the “Effect on HIV-1 infectivity (FIG. 1)” value was “potently blocked the infectivity of HIV-1”, the “infectivity … (100%) infectivity” value was determined as 0.047% and the “reduction of infectivity / inhibition” value stood at 52%. Also, in data set [2] (at 80 μM), the “inhibition of protease activity” value is listed as 65%. For the same compound, the “inhibition of protease activity” value in data set [2] (at 40 (unit not given)) is 24%.
“β-N,N-dimethyl[70]fulleropyrrolidinium iodide [Compound 2c]”: in data set [1], the “Effect on HIV-1 infectivity (FIG. 1)” value is recorded as “potently blocked the infectivity of HIV-1”, the “infectivity … (100%) infectivity” value is given as 0.003% and the “reduction of infectivity / inhibition” value was 71%. For the same compound, the “solubility in H2O:DMSO (9:1)” value in data set [3] was 0.252 nM.
